Measurements reported in US20110039857A1, “PIPERIDINE AND PYROOLIDINE COMPOUNDS” (priority 2008, published 2011).

Key:
[1] = molecular target: T1, human orexin-1 receptor (Homo sapiens, UniProt O43613); assay: Intracellular calcium measurements (FLIPR), orexin receptor antagonistic activity; type: cell-based; conditions: CHO cells expressing human orexin-1 receptor; agonist 3 nM orexin-A; read-out: OX1 IC50
T1 construct: expressed in transfected cells; host or cells: CHO (Chinese hamster ovary) cells under G418 selection
T1 sequence (O43613 1-425): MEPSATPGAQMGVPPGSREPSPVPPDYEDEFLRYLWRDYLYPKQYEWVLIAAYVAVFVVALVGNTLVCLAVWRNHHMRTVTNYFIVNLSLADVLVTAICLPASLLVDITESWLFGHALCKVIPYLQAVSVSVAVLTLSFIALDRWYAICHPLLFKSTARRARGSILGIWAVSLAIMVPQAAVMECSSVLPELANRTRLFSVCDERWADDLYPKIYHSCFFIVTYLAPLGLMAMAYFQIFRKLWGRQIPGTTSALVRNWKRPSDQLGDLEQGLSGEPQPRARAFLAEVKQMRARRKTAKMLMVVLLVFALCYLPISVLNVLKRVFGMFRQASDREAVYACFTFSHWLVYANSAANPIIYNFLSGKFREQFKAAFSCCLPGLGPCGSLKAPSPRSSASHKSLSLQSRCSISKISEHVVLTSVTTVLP
Protocol: (§1) The orexin receptor antagonistic activity of the compounds of formula (I) is determined in accordance with the following experimental method.
(§2) Intracellular Calcium Measurements:
(§3) Chinese hamster ovary (CHO) cells expressing the human orexin-1 receptor and the human orexin-2 receptor, respectively, are grown in culture medium (Ham F-12 with L-Glutamine) containing 300 μg/ml G418, 100 U/ml penicillin, 100 μg/ml streptomycin and 10% heat inactivated fetal calf serum (FCS). The cells are seeded at 20′000 cells/well into 384-well black clear bottom sterile plates (Greiner). The seeded plates are incubated overnight at 37° C. in 5% CO2.
(§4) Human orexin-A as an agonist is prepared as 1 mM stock solution in MeOH: water (1:1), diluted in HBSS containing 0.1% bovine serum albumin (BSA), NaHCO3: 0.375g/l and 20 mM HEPES for use in the assay at a final concentration of 3 nM.
(§5) Antagonists are prepared as 10 mM stock solution in DMSO, then diluted in 384-well plates using DMSO followed by a transfer of the dilutions into in HBSS containing 0.1% bovine serum albumin (BSA), NaHCO3: 0.375g/l and 20 mM HEPES. On the day of the assay, 50 μl of staining buffer (HBSS containing 1% FCS, 20 mM HEPES, NaHCO3: 0.375g/l, 5 mM probenecid (Sigma) and 3 μM of the fluorescent calcium indicator fluo-4 AM (1 mM stock solution in DMSO, containing 10% pluronic) is added to each well. The 384-well cell-plates are incubated for 50 min at 37° C. in 5% CO2 followed by equilibration at RT for 30-120 min before measurement.
(§6) Within the Fluorescent Imaging Plate Reader (FLIPR, Molecular Devices), antagonists are added to the plate in a volume of 10 μl/well, incubated for 10 min and finally 10 μl/well of agonist is added. Fluorescence is measured for each well at 1 second intervals, and the height of each fluorescence peak is compared to the height of the fluorescence peak induced by 3 nM orexin-A with vehicle in place of antagonist. For each antagonist, the IC50 value (the concentration of compound needed to inhibit 50% of the agonistic response) is determined.

[2] = molecular target: T2, human orexin-2 receptor (Homo sapiens, UniProt O43614); assay: as above; type: cell-based; conditions: CHO cells expressing human orexin-2 receptor; agonist 3 nM orexin-A; read-out: OX2 IC50
T2 construct: expressed in transfected cells; host or cells: CHO (Chinese hamster ovary) cells under G418 selection
T2 sequence (O43614 1-444): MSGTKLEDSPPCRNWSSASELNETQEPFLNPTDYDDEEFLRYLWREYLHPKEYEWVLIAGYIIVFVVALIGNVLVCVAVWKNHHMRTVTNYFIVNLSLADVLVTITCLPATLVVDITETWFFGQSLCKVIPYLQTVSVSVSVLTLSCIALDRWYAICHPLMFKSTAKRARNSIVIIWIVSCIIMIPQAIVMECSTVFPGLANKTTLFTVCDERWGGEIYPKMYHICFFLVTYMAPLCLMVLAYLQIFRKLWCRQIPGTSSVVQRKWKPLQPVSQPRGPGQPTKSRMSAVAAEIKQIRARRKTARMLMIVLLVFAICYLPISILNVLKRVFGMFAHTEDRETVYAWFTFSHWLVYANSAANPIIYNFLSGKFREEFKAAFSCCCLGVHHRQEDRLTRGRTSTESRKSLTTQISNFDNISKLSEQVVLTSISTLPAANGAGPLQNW
Protocol: as §1, §2, §3, §4, §5, §6

IC50 [1] [nM] | IC50 [2] [nM] | SMILES
13 | 11 | Cc1ccc(-c2ccccc2C(=O)N2CCC[C@@H](Nc3cnc4ccccc4n3)C2)cc1C [Example 6, (R)-(3′,4′-Dimethyl-biphenyl-2-yl)-[3-(quinoxalin-2-ylamino)-piperidin-1-yl]-methanone]
25 | 10 | COc1cc(OC)nc(N[C@@H]2CCCN(C(=O)c3ccccc3-c3ccc(C)c(C)c3)C2)n1 [Example 2, (R)-[3-(4,6-Dimethoxy-pyrimidin-2-ylamino)-piperidin-1-yl]-(3′,4′-dimethyl-biphenyl-2-yl)-methanone]
32 | 25 | Cc1ccc(-c2ccccc2C(=O)N2CCC[C@@H](NC(=O)c3cn(C)c4ccccc34)C2)cc1C [Example 41, (R)-1-Methyl-1H-indole-3-carboxylic acid[1-(3′,4′-dimethyl-biphenyl-2-carbonyl)-piperidin-3-yl]-amide]
58 | 43 | Cc1ccc(-c2ccccc2C(=O)N2CCC[C@@H](Nc3nccc(C(F)(F)F)n3)C2)cc1C [Example 1, (R)-(3′,4′-Dimethyl-biphenyl-2-yl)-[3-(4-trifluoromethyl-pyrimidin-2-ylamino)-piperidin-1-yl]-methanone]
33 | 15 | Cc1cccc(-c2ccccc2C(=O)N2CCC[C@@H](NC(=O)c3nn(C)c4ccccc34)C2)c1 [Example 34, (R)-1-Methyl-1H-indazole-3-carboxylic acid[1-(3′-methyl-biphenyl-2-carbonyl)-piperidin-3-yl]-amide]
